These results are taken from patent publication US20250213563A1, “SUBSTITUTED PYRIMIDIN-4(3H)-ONES FOR USE IN TREATING CANCER” (NAVIRE PHARMA, INC., priority 2021, published 2025).

Where two headings read alike, the source gives them in different places.

Series [1] in a line: Single-dose pharmacokinetics, CD-1 mouse. The class given is in vivo, mouse (CD-1, female). As to conditions: for AUC(0-t): read-out: AUC0→24. How it is done:
The pharmacokinetic (PK) parameters of Compound (10b) (freebase) were determined following single intravenous (IV) and oral (PO) administration in female CD-1 mouse, female C57BL/6 mouse (PO only), male Sprague Dawley rat, male Beagle dog, and male Cynomolgus monkey. Additional evaluation of the PK properties of Compound (10b) was obtained following single dose PO administration in female CD-1 mouse, male Sprague Dawley rat and male Beagle dog over a dose range spanning 10 to 300 mg/kg (mouse and rat) and 1 to 100 mg/kg (dog). The intravenous dose solutions were prepared in 20% DMSO-60% PEG400-20% water and the oral dose solutions as suspensions in 0.5% methylcellulose in water, unless otherwise noted. Plasma concentration profiles were generated from serial sampling in individual animals up to 24 hours post dose, except for the studies in mice where composite sampling methods were used (i.e. 3 sampling times per mouse; 9 mice per group). […] Exposures increased with increasing dose level across species, in a dose-proportional manner in mouse and dog, and in a greater than dose-proportional manner in rat (80× increase in AUC with a 30× increase in dosage).

Series [2] deals with KYSE-520. Kind of series: 3D cell viability (CellTiter-Glo). The format is cell-based. As to conditions: Homo sapiens, 192 h; KYSE-520, EGFR^amp; 8 days of treatment; read-out: 3D CTG (IC50). The procedure: (§1) The potency of Compound (10b) in a panel of human tumor cell lines with active MAPK signaling was assessed. Cell viability in a 3D culture system was assessed by measuring CellTiter-Glo (CTG) luminescence following 8 days of treatment with nine concentrations of Compound (10b). MAPK pathway signaling was assessed by measuring pERK protein levels and DUSP6 mRNA levels by homogeneous time resolved fluorescence (HTRF) and quantitative polymerase chain reaction (qPCR), respectively. […] These viability effects correlated with pERK inhibition (Table 2, FIG. 6B) and DUSP6 inhibition (FIG. 6C).

For series [3], the system named is NCI-H358. Kind of series: 3D cell viability (CellTiter-Glo). The class given is cell-based. As to conditions: Homo sapiens, 192 h; NCI-H358, KRAS^G12C; 8 days of treatment; read-out: 3D CTG (IC50). The procedure: as §1
On the technique in general: ATP-based viability assays read luminescence as a measure of living cells.

The subject of series [4] is NCI-H1975. In words: 3D cell viability (CellTiter-Glo). As to conditions: Homo sapiens, 192 h; NCI-H1975, EGFR^L858R/T790M; 8 days of treatment; read-out: 3D CTG (IC50). The format is cell-based. The procedure: as §1
Another series concerns NCI-H1299. In words: pERK protein levels (HTRF). The class given is cell-based. As to conditions: Homo sapiens; NCI-H1299, NRAS^Q61K. How it is done:
as §1
(Time-resolved FRET reads energy transfer from a long-lived donor to a nearby acceptor.)

Series [5] concerns KYSE-520. Kind of series: pERK protein levels (HTRF). The format is cell-based. As to conditions: Homo sapiens; KYSE-520, EGFR^amp. The procedure: as §1
For series [6], the system named is NCI-H358. Kind of series: pERK protein levels (HTRF). The format is cell-based. The settings on record: Homo sapiens; NCI-H358, KRAS^G12C. How it is done:
as §1

Series [7] relates to NCI-H1975. In words: pERK protein levels (HTRF). The class given is cell-based. As to conditions: Homo sapiens; NCI-H1975, EGFR^L858R/T790M. The procedure: as §1
The test system of a further series is HCC827. Kind of series: pERK protein levels (HTRF). The class given is cell-based. As to conditions: Homo sapiens; HCC827, EGFR^Ex19del. The procedure:
as §1

Series [8] addresses T1, Large tumor suppressor kinase 1 (LATS1) (Homo sapiens, UniProt O95835).
T1 construct: purchased DiscoverX (KINOMEscan platform)
In words: KINOMEscan competition binding. As to conditions: read-out: ligand binding, % control. How it is done:
(§2) Activity of Compound (10b) (1 μM) was assessed against a panel of 419 human kinases (including a set of disease-relevant mutant variants). Assays were conducted using the KINOMEscan™ platform from DiscoverX which measures compound interaction with kinases using active site-directed competition binding assays. Displacement of ligand binding to the kinase by <35% of the control value is considered significant. Of the 419 kinases tested, only 4 kinases reached this level of displacement: Protein kinase C eta (PRKCH), 34% control; Large tumor suppressor kinase 1 (LATS1), 32% control; General control nonderepressible 2 kinase (GCN2), 21% control; and Hematopoietic Progenitor Kinase 1 (HPK1), 4.4% control.

Series [9] has as its target T2, Protein kinase C eta (PRKCH) (Homo sapiens, UniProt P24723).
T2 construct: purchased DiscoverX (KINOMEscan platform)
In words: KINOMEscan competition binding. As to conditions: read-out: ligand binding, % control. The procedure: as §2

The mark [10] stands for this setting: female, CD-1, mouse, plasma, IV 1 mg/kg, free base.
Where [11] appears, read: female, CD-1, mouse, plasma, oral 10 mg/kg, free base.

T2 sequence (P24723 whole entry): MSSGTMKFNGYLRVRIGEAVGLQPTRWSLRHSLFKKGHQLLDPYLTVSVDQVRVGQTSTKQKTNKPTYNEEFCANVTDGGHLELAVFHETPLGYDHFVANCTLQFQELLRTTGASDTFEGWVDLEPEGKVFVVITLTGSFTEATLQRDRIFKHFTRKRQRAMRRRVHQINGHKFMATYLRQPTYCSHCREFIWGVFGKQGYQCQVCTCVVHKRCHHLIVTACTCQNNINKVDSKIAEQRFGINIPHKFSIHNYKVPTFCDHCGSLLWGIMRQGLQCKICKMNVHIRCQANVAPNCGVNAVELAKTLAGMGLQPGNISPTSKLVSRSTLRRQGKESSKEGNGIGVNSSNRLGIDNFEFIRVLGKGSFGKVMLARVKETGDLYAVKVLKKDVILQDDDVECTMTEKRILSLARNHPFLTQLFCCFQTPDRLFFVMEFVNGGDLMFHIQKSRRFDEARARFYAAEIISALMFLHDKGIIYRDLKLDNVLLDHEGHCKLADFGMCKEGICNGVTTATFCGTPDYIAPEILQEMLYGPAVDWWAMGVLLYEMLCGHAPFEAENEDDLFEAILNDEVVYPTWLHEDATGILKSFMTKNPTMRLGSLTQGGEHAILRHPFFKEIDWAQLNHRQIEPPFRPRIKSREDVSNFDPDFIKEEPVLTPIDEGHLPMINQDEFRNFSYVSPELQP
T1 sequence (O95835 whole entry): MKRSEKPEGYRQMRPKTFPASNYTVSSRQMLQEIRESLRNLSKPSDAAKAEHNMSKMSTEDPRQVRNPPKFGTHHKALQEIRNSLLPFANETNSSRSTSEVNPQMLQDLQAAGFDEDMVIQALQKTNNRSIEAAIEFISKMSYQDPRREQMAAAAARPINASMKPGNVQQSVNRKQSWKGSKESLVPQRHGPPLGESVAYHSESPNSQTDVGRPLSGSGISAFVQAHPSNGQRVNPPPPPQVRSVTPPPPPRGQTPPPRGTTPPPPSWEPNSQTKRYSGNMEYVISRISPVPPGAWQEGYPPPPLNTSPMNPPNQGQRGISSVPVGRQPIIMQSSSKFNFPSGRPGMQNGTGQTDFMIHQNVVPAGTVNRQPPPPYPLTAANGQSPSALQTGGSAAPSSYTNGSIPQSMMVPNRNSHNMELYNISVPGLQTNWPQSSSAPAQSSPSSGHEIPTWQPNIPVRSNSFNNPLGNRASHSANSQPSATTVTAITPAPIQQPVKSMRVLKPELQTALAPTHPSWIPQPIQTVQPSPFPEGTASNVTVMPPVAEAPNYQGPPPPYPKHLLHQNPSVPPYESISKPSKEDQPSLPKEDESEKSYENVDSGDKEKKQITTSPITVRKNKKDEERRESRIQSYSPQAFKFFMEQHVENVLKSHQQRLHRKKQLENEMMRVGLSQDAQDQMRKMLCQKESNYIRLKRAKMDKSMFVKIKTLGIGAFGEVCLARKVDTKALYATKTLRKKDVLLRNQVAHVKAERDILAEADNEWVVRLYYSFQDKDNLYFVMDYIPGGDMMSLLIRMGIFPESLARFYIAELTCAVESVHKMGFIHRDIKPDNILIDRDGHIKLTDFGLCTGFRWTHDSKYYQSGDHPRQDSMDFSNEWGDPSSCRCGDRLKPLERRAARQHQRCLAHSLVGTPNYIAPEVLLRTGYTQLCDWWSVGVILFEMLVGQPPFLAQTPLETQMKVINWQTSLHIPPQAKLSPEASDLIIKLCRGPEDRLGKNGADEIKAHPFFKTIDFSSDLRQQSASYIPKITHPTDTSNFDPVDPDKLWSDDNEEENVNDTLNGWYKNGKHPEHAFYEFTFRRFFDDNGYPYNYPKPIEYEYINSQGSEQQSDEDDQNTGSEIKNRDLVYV

Broadly, the half-life is the time in which the quantity being followed falls by half. A low value points to rapid decline. Usually Cmax stands for the highest concentration seen after dosing. Broadly, the Tmax is the time at which the peak concentration occurs. As a reminder, the IC50 is the concentration at which inhibition is half-maximal. In series [1] (setting [10]), `Cc1c(N2CCC3(CC2)CO[C@@H](C)[C@H]3N)nc(C)n(-c2cccc(Cl)c2Cl)c1=O` (atropisomer, axis not shown; (Ra)) [Compound (10b), 6-((3S,4S)-4-amino-3-methyl-2-oxa-8-azaspiro[4.5]decan-8-yl)-3-(Ra)-(2,3-dichlorophenyl)-2,5-dimethylpyrimidin-4(3H)-one] gave a half-life of 133 min. Further, the figures for the AUC(0-t) in series [1] (setting [10]) and in [1] (setting [11]) were 1.39 µM·h and 12.5 µM·h, respectively. The clearance in series [1] (female, CD-1, mouse, plasma, IV 1 mg/kg, free base, read-out: Clp (converted)) was 25.7 mL/min/kg. For the same compound, the Vd in series [1] (female, CD-1, mouse, plasma, IV 1 mg/kg, free base, read-out: Vdss) was found to be 3.84 L/kg. The compound further yielded a Cmax in series [1] (setting [11]) of 4.17 µM. In addition, the time to peak (Tmax) in series [1] (female, CD-1, mouse, plasma, oral 10 mg/kg, free base, read-out: Tmax (mean)) came out at 15 min; in series [1] (female, CD-1, mouse, plasma, oral 300 mg/kg, read-out: mean Tmax) it was 15 min. The F in series [1] (oral 10 mg/kg, free base) was found to be 84.1%. Further, the IC50 was 210 nM with KYSE-520 [2]; 280 nM with NCI-H358 [3]; 180 nM in the series with NCI-H1975 [4]; over 25000 nM in the series with NCI-H1299; 73 nM in the series with KYSE-520 [5]; 480 nM in the series with NCI-H358 [6]. For the same compound, the IC50 with NCI-H1975 [7] worked out at 400 nM; with HCC827 it was 460 nM. In series [8], the remaining binding at 1 µM came to 32%. Also, the remaining ligand binding at 1 µM in series [9] was determined as 34%.
